Test results taken from paper PMC4329990 (2014).

System: d(C3TA2)3C3/d(T2AG3)4 duplex (DNA, duplex) CCCTAACCCTAACCCTAACCC/TTAGGGTTAGGGTTAGGGTTAGGG
Experiment: fluorescence titration, IT/IN, modified Benesi-Hildebrand
Details: citrate 10 mM; 10 mM citrate pH 7.0, <1% ethanol, 25 °C

SMILES | Ka
O=c1c(O)c(-c2ccc(O)c(O)c2)oc2cc(O)cc(O)c12 | 10400 M⁻¹
O=c1c(O)c(-c2ccc(O)c(O)c2)oc2cc(O)ccc12 | 46200 M⁻¹
O=c1c(O)c(-c2ccccc2)oc2ccccc12 | 86700 M⁻¹
